In patent USRE48253E1, “Methotrexate adjuvants to reduce toxicity and methods for using the same” (Tosk, Inc., priority 2008, dated 2020):

Columns and labels:
[1] = system: UPase knockout (19519) Drosophila melanogaster; experiment: Fly Study II: MTX lethality in UPase knockout flies; type: in vivo
Method: Embryos of UPase knockout (19519) Drosophila melanogaster were orally exposed to a dose range of MTX doses in food admix. Embryos of Wild-type (Oregon-R) were orally exposed to the same dose range of MTX in presence and absence of 0.04 mg TK-112690. Scoring was based on life or death 15 days after initiation of MTX exposure. […] Wild-type D. melanogaster are sensitive to lethal effects of ≥0.1 mg MTX.
The aim of this study was to evaluate the lethal effects of a range (0.001, 0.01, 0.05, 0.1, 0.2, 0.4 mg) of doses of orally fed MTX in wild-type (Ore-R) and UPase mutant Drosophila melanogaster. Embryos of UPase knockout (19519) Drosophila melanogaster were orally exposed to a dose range of MTX (0.001, 0.01, 0.05, 0.1, 0.2, 0.4 mg) in food admix. Embryos of Wild-type (Oregon-R) were orally exposed to the same dose range of MTX in presence and absence of 0.04 mg TK-112690. Scoring was based on life or death 15 days after initiation of MTX exposure.

C57Bl/6 female mice = experiment: Mouse Study II: MTX-induced loss of mucosal permeability (plasma iodixanol); type: in vivo; conditions: day 7
Method: C57Bl/6 female mice (n=7) were treated intraperitoneal (ip) with 100 mg/kg MTX on days 2, 3 and 4 with and without 60 mg/kg TK-112690 (ip) three hours before, and after, MTX injections. On day 7, mucosal barrier injury was estimated by measuring plasma concentrations of orally administered iodixanol determined by HPLC using UV detection (Boxplots with minimum and maximum values (black lines). Orally administered iodixanol is not absorbed absent an increase in mucosal permeability. Group 1=saline control, Group 2=MTX and Group 3=MTX+TK-112690.
The aim of this study was to evaluate the ability of a representative a 2,2′-anhydropyrimidine test article to mitigate MTX-induced loss of mucosal permeability. C57Bl/6 female mice (n=7) were treated (ip) with 100 mg/kg MTX on days 2, 3 and 4 with and without 60 mg/kg TK-112690 (ip) three hours before, and after, MTX injections. On day 7, mucosal barrier injury was estimated by measuring plasma concentrations of orally administered iodixanol determined by HPLC using UV detection. Orally administered iodixanol is not absorbed absent an increase in mucosal permeability.

CCRF-CEM cells = experiment: Cell Culture Study I: MTX cytotoxicity, alamarBlue; type: cell-based, human; conditions: 72 hours
Method: In this study, CCRF-CEM cells purchased from ATCC were cultured and then 12 tubes containing approximately 10^6 cells each treated for 72 hours with media (Group1), MTX 0.03 μM (Group2), MTX+Leucovorin 1 μM (Group3), MTX+Leucovorin 10 μM (Group4), MTX+Leucovorin 100 μM (Group5), MTX+TK-112690 1 μM (Group6), MTX+TK-112690 10 μM (Group7) and MTX+TK-112690 100 μM (Group8). […] Viability was measured as percent reduction of alamarBlue absorbance.
The tumor cell line CCR-CEM (human T-cell acute lymphoblastic leukemia) is obtained from American Type Culture Collection (CRL-1593.2) and cultured in accordance with the product information sheet with the following exceptions: 55.3 cm^2 Petri dishes are used instead of 75 cm^2 culture flasks, and 1% penicillin-streptomycin solution (HyClone SV30010) and 1% GlutaMAX™ (Gibco 35050) are added to the culture medium.
TK-112690, the representative 2,2′-anhydropyrimidine test article, is dissolved in 40% DMSO, sterile filtered then diluted with sterile distilled water to obtain initial working solutions of 10, 100 and 1000 μM. In testing, a 100 fold dilution is made in culture media to give final assay concentrations of 0.1, 1.0 and 10.0 μM. MTX (SAFC Biosciences M8407) is dissolved in sterile distilled water and 5 N NaOH then sterile filtered. The final pH of the stock solution is 7.8 and working solutions are made with sterile distilled water for final assay concentrations of 30, 3.0, 0.3, 0.03 and 0.003 μM. Leucovorin (Sigma F-7878) is dissolved in sterile distilled water, sterile filtered and diluted with sterile distilled water for final assay concentrations of 0.1, 1.0 and 10.0 μM.
Aliquots of 100 μL of cell suspension are plated in 96 well microtiter plates (Corning costar 3595) and placed in an atmosphere of 5% CO2 at 37° C. (Fisher Scientific Isotemp 3500 CO2 Incubator). After 24 hours, 100 μL of growth medium [RPMI-1640 w/L-glutamine (Cambrex 12-702Q) fortified with sodium pyruvate (HyClone SH30239.01), fetal bovine serum (SAFC Biosciences 12107C) and HEPES buffer (Gibco 15630)] and 2 μL of test solution or vehicle are added respectively per well and the plates incubated for an additional 72 hour incubation. MTX is evaluated at concentrations of 0.003, 0.03, 0.30 and 3.0 μM alone or in combination with either a 2,2′-anhydropyrimidine test article or Leucovorin at concentrations of 0.1, 1.0, 10.0 μM. At the end of incubation, the efficacy of anti-cell proliferation is determined by optical absorbance at λ=570 and 600 nm [Spectramax 250 (Molecular Devices)] in accordance with the standard alamarBlue™ (Biosource) protocol.
Group 1 is the cell control (media treated). Group 2 corresponds to cells treated with 0.03 μM MTX. Group 3 are cells treated with 1.0 μM Leucovorin. Group 4 are cells treated with 0.1 μM Leucovorin. Group 5 are cells treated with 10 μM TK-112690. Group 6 are cells treated with MTX+10 μM TK-112690. Group 7 are cells treated with MTX+1.0 μM TK-112690. Group 8 MTX+0.1 μM TK-112690.

Compound | added protection from methotrexate toxicities in UPase mutant flies ([1]; TK-112690 added to dose range of methotrexate) | protection from MTX-induced mucosal barrier injury (plasma concentration of orally administered iodixanol) (C57Bl/6 female mice; 60 mg/kg ip three hours before and after MTX 100 mg/kg, days 2, 3, 4) | effect on MTX cytotoxicity (viability, alamarBlue) (CCRF-CEM cells; combined with MTX 0.03 μM) | viability, agent alone vs control (CCRF-CEM cells; without MTX) | lethal effects of MTX in UPase knockout flies ([1]; MTX 0.001-0.4 mg orally) | mucosal barrier injury (plasma concentration of orally administered iodixanol) (C57Bl/6 female mice; 100 mg/kg MTX ip on Days 2, 3 and 4) | viability, MTX alone vs cell control (CCRF-CEM cells; MTX 0.03 μM)
Cc1cn2c(nc1=O)O[C@H]1[C@H](O)[C@@H](CO)O[C@H]12 [TK-112690, 2,2′-anhydro-5-methyluridine] | does not provide added protection | protected mice from MTX-induced mucosal barrier injury | do not interfere with methotrexate cytotoxicity | not statistically different than control |  |  | 
CN(Cc1cnc2nc(N)nc(N)c2n1)c1ccc(C(=O)N[C@@H](CCC(=O)O)C(=O)O)cc1 [MTX, N-[4-[[(2,4-diamino-6-pteridinyl)methyl]methylamino]benzoyl]-L-glutamic acid, reference compound] |  |  |  |  | resistant to lethal effects | experienced mucosal barrier injury | statistically significantly different from Group1
